Measurements published in article PMC4104761, “Identification of a novel lytic peptide for the treatment of solid tumours” (Genes & Cancer, 2014).

Columns and labels:
U87 cells = assay: Comparison of peptide variants by crystal violet staining and light microscopy
Text: The sizes of the resulting in silico peptides varied from 10 to 30 amino acids. In order to facilitate their cellular internalisation, a TAT-HIV sequence was attached to the C-terminal ends. All peptides were […]. The peptide library was produced by Cambridge Peptides (Cambridge, UK). The peptides were then screened with the MTT (3-(4,5-dimethylthiazol-2-yl)-2,5-diphenyltetrazolium bromide) assay on U87 human glioma cells. Cellular morphology after peptide exposure was assessed by crystal violet staining and light microscopy. All experiments were performed in triplicate.
To increase the stability of the peptide, two further sub-formulations of the original formula (L-aa, containing only L-amino acids) were created: D-aa (retro inversed, (ri)), a peptide comprised of a backward sequence of the original in silico formula, yet made up solely of D-amino acids and an analogue peptide to original in silico peptide formula, comprised of D-amino acids. D-amino acids are highly resistant to protease mediated degradation and have a low immunogenic response. The respective peptide variants were tested in the following concentrations: 7.5, 10, 15, 20 and 25 µg/ml and incubated for 3 hours.

normal human cell lines = assay: MTT viability assay, average of normal human cell lines; assay type: cell-based; conditions: 20 µg Cypep-1/ml, 60 min exposure
Procedure: Cypep-1 was tested in various concentrations on a total of 17 cell lines, which included 13 human and 1 murine tumour cell line(s), as well as 3 normal human cell lines. Listed in detail: 4 human osteosarcoma (U2OS, SaOS2, HOS and MNNG-HOS), 6 human glioblastoma (A172, GaMg, LN18, U87, U373 and T98G) and 3 human mammary carcinoma cell lines (MCF7, AU565 and MDA-MB-468) as well as an additional murine mammary carcinoma cell line (4T1). Furthermore, 3 normal human cell lines were included: 2 normal human fibroblast cell lines (HFF1 and 142Br) as well as normal human osteoblasts (HOB).
MTT proliferation assays were performed on all cell lines (with the exception of 142Br (human skin fibroblasts)), using monolayers of 15 000 cells in sterile 96 well tissue culture plates (Nunc™, Roskilde, Denmark), respectively. All cells were incubated with Cypep-1 dissolved in 0.9% NaCl, at the following concentrations: 0.1, 0.5, 1.0, 5, 10, 15, 20, 25, 30 and 35µg of Cypep-1 per ml and assayed after 15, 30, 45, 60, 75, 90, 180, 270 and 360 min.

[1] = Liposome leakage assay (ANTS/DPX fluorescence); assay type: biochemical; conditions: 25°C, pH 7.4, fluorescence at 510 nm, triplicate; for leakage of ANTS from liposomes: 0 to 90 µg/ml
Procedure: To assess the membranolytic effect of Cypep-1 on the integrity of phospholipid model membranes, liposome leakage assays monitored by fluorescence spectroscopy were performed on 200 nm liposomes as described earlier. […] (purchased from CPC Scientific, San Jose, CA) was used as control in the leakage assays (Peptide A).
Negatively charged PBPS: EYL (1:1 mixture) as well as neutral pure EYL vesicles were used, in which both liposome types encapsulated the fluorochrome ANTS (8 aminonaphtalene-1,3,6 trisulfonic acid) and its corresponding quencher DPX (p-xylene-bis[N-pyridinium bromide]). In principle, a disruption of the liposomes' bi-layer induces leakage of the fluorophore ANTS. This entails an increase in fluorescence at 510 nm. All fluorescence spectra were recorded at 25°C and pH 7.4 on a Cary Eclipse Fluorescence Spectrophotometer (Varian Optical Spectroscopy Instruments, Mulgrave, Victoria, Australia). The respective titrations with Cypep-1 and the control Peptide A were performed in concentrations ranging from 0 µg/ml to 90 µg/ ml (0 µM to 26 µM). The fluorescence was measured for each concentration point of the concentration series, and all measurements were performed in triplicate. At the end of each measurement, Triton X-100 was added to a final concentration of 2 mM, to obtain the maximum membrane leakage. The resulting maximum fluorescence at 510 nm is defined as 100%, i.e. complete liposome breakdown. The induced leakages of the fluorophore ANTS due to exposure to the peptides were then evaluated as a percentage of its complete release after Triton X-100 exposure. The initial fluorescence intensity of the respective liposome solutions was defined as 0% leakage.

[2] = Biodistribution of 125I-Cypep-1 after i.v. injection; assay type: in vivo, Wistar rat; conditions: rat
Procedure: The radio labelling of Cypep-1 was performed with ^125I, according to the Iodo-Gen method as described by Fraker et al.. The obtained ^125I-Cypep-1 stock solution was stored in the dark at 4°C for 48 hours prior to validation by reversed phase chromatography, using a 4.6 × 50 mm Dionex Proswift RP-2H column on an Ettan LC System (GE Healthcare, Oslo, Norway) in line with a Radiomatic 610TR Flow System Analyzer by Perkin Elmer (PerkinElmer, Waltham, MA) for gamma detection.
The plasma activity and biodistribution of ^125I-Cypep-1 was evaluated in a single experiment. An adult female Wistar rat of 260 g body weight was anaesthetized using 15 mg of Pentobarbital i.p.. Its body temperature was maintained at 37°C, using both a heating pad and an infrared lamp. Two PE-50 polyethylene catheters were placed into the femoral vein for the bolus injection of Cypep-1 and one into the femoral artery for blood sampling. 50 µl of the ^125I-Cypep-1 stock solution dissolved in 500 µl 0.9% NaCl were injected i.v., and a total of six arterial blood samples (100 µl per sample) were collected at 0.25, 1, 5, 10, 15 and 20 min following the ^125I-Cypep-1 administration. The animal was sacrificed under deep anaesthesia with an i.v. bolus injection of 0.5 ml saturated KCl. The tissue and plasma samples were harvested immediately and counted for ^125I-activity in a gamma-counter (LKB Wallac 1285, Turku, Finland). The peptide distribution volumes in the various body tissues were calculated as the ^125I-activity per gram tissue sample divided by the time-averaged plasma ^125I-activity during the 20 minutes clearance period (*= plasma equivalent space in ml/g tissue wet weight).

[3] = 125I-Cypep-1, i.v., 20 min after administration, gamma counting, single animal

YGRKKRRQRRRGKTLRVAKAIYKRYIE [Cypep-1]
cytotoxic effect / potency by crystal violet staining (U87 cells; U87 cells, 7.5, 10, 15, 20 and 25 µg/ml, 3 hours incubation): more potent than the parent L- amino acid formula
monolayer appearance by light microscopy (U87 cells; U87 monolayer, 15 µg/ml, 3 hours exposure): extensive cell loss
surviving fraction, average of normal human cell lines (normal human cell lines): 56%
leakage of ANTS from liposomes ([1]; 200 nm EYL liposomes): significant leakage of ANTS
leakage of ANTS from liposomes ([1]; 200 nm liposomes PBPS:EYL 1:1): significant leakage of ANTS
EC50 ([1]; ANTS/DPX leakage, 200 nm liposomes PBPS:EYL 1:1, read-out: S0.5, concentration necessary to achieve membrane disruption): 8.3 ± 0.5 µM
tissue distribution, cerebellum [2, 3]: 0.00 ml/g tissue wet weight
tissue distribution, cerebrum [2, 3]: 0.01 ml/g tissue wet weight
tissue distribution, colon [2, 3]: 0.14 ml/g tissue wet weight
tissue distribution, eye [2, 3]: 0.02 ml/g tissue wet weight
tissue distribution, jejunum [2, 3]: 0.17 ml/g tissue wet weight
tissue distribution, kidneys (per kidney) [2, 3]: 1.685 ml/g tissue wet weight
tissue distribution, liver [2, 3]: 11.74 ml/g tissue wet weight
tissue distribution, lungs [2, 3]: 0.38 ml/g tissue wet weight
tissue distribution, muscle tissue [2, 3]: 0.02 ml/g tissue wet weight
tissue distribution, spleen [2, 3]: 4.89 ml/g tissue wet weight
tissue distribution, stomach [2, 3]: 0.04 ml/g tissue wet weight
tissue distribution, thyroid gland [2, 3]: 0.13 ml/g tissue wet weight
passage of the blood-brain-barrier ([2]; concluded from very low concentrations in organs of the central nervous system, i.v.): did not pass the blood-brain-barrier
